{
  "source": "patent US20260285850A1",
  "about": "“SUBSTITUTED OXAZOLIDINONES AND IMIDAZOLINONES AS HERBICIDES” (FMC CORPORATION, priority 2023, published 2026)",
  "assay_type_in_all_cases": "in vivo",
  "key": {"[1]": {"tested_on": "barnyardgrass (Echinochloa crusgalli)", "test": "Test B flooded paddy test, visual plant response rating 0-100", "details": "250 g ai/ha, Flood, applied to paddy water, evaluated after 13 days", "outline": "(§1)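 Paddy-water application: test compounds went directly into water flooded 3 cm above the soil surface, with plants at 2 leaves. After a 13-day greenhouse period, responses were judged by eye relative to controls; a dash marks an untested entry.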"}, "[2]": {"tested_on": "ducksalad (Heteranthera limosa)", "test": "Test B flooded paddy test, visual plant response rating 0-100", "details": "250 g ai/ha, Flood, applied to paddy water, evaluated after 13 days", "outline": "as §1"}, "[3]": {"tested_on": "sedge, umbrella (small-flower umbrella sedge, Cyperus difformis)", "test": "Test B flooded paddy test, visual plant response rating 0-100", "details": "250 g ai/ha, Flood, applied to paddy water, evaluated after 13 days", "outline": "as §1"}, "rice (Oryza sativa)": {"tested_on": "rice (Oryza sativa)", "test": "Test B flooded paddy test, visual plant response rating 0-100", "details": "250 g ai/ha, Flood, applied to paddy water, evaluated after 13 days", "outline": "as §1"}, "[4]": {"tested_on": "ryegrass, Italian (italian ryegrass, Lolium multiflorum)", "test": "Test A postemergence application, visual injury rating 0-100", "outline": "(§2)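 Loam-sand pots got test material in surfactant-containing solvent, either as a directed soil spray before emergence or on plants at the one- to two-leaf stage. Visual injury (0-100) was read after ten greenhouse days.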"}, "[5]": {"tested_on": "palmer (palmer amaranth, palmer pigweed, Amaranthus palmeri)", "test": "Test A postemergence application, visual injury rating 0-100", "outline": "as §2"}, "corn (Zea mays) [6]": {"tested_on": "corn (Zea mays)", "test": "Test A postemergence application, visual injury rating 0-100", "outline": "as §2"}, "kochia (Bassia scoparia) [7]": {"tested_on": "kochia (Bassia scoparia)", "test": "Test A postemergence application, visual injury rating 0-100", "outline": "as §2"}, "[8]": {"tested_on": "oat, wild (wild oat, Avena fatua)", "test": "Test A postemergence application, visual injury rating 0-100", "outline": "as §2"}, "[9]": {"tested_on": "horseweed (Erigeron canadensis)", "test": "Test A postemergence application, visual injury rating 0-100", "outline": "as §2"}, "[10]": {"tested_on": "green foxtail (Setaria viridis)", "test": "Test A postemergence application, visual injury rating 0-100", "outline": "as §2"}, "soybean (Glycine max) [11]": {"tested_on": "soybean (Glycine max)", "test": "Test A postemergence application, visual injury rating 0-100", "outline": "as §2"}, "[12]": {"tested_on": "ragweed (common ragweed, Ambrosia artemisiifolia)", "test": "Test A postemergence application, visual injury rating 0-100", "outline": "as §2"}, "[13]": {"tested_on": "barnyardgrass (Echinochloa crus-galli)", "test": "Test A postemergence application, visual injury rating 0-100", "outline": "as §2"}, "[14]": {"tested_on": "blackgrass (Alopecurus myosuroides)", "test": "Test A postemergence application, visual injury rating 0-100", "outline": "as §2"}, "[15]": {"tested_on": "wheat (Triticum aestivum)", "test": "Test A postemergence application, visual injury rating 0-100", "outline": "as §2"}, "[16]": {"tested_on": "ryegrass, Italian (italian ryegrass, Lolium multiflorum)", "test": "Test A preemergence soil spray, visual injury rating 0-100", "details": "10 days", "outline": "as §2"}, "[17]": {"tested_on": "palmer (palmer amaranth, palmer pigweed, Amaranthus palmeri)", "test": "Test A preemergence soil spray, visual injury rating 0-100", "details": "10 days", "outline": "as §2"}, "corn (Zea mays) [18]": {"tested_on": "corn (Zea mays)", "test": "Test A preemergence soil spray, visual injury rating 0-100", "details": "10 days", "outline": "as §2"}, "kochia (Bassia scoparia) [19]": {"tested_on": "kochia (Bassia scoparia)", "test": "Test A preemergence soil spray, visual injury rating 0-100", "details": "10 days", "outline": "as §2"}, "[20]": {"tested_on": "oat, wild (wild oat, Avena fatua)", "test": "Test A preemergence soil spray, visual injury rating 0-100", "details": "10 days", "outline": "as §2"}, "[21]": {"tested_on": "green foxtail (Setaria viridis)", "test": "Test A preemergence soil spray, visual injury rating 0-100", "details": "10 days", "outline": "as §2"}, "soybean (Glycine max) [22]": {"tested_on": "soybean (Glycine max)", "test": "Test A preemergence soil spray, visual injury rating 0-100", "details": "10 days", "outline": "as §2"}, "[23]": {"tested_on": "ragweed (common ragweed, Ambrosia artemisiifolia)", "test": "Test A preemergence soil spray, visual injury rating 0-100", "details": "10 days", "outline": "as §2"}, "[24]": {"tested_on": "barnyardgrass (Echinochloa crus-galli)", "test": "Test A preemergence soil spray, visual injury rating 0-100", "details": "10 days", "outline": "as §2"}, "[25]": {"tested_on": "blackgrass (Alopecurus myosuroides)", "test": "Test A preemergence soil spray, visual injury rating 0-100", "details": "10 days", "outline": "as §2"}, "[26]": {"tested_on": "wheat (Triticum aestivum)", "test": "Test A preemergence soil spray, visual injury rating 0-100", "details": "10 days", "outline": "as §2"}, "[27]": {"details": "62 g ai/ha, postemergence, 10 days, 0 = no effect, 100 = complete control"}, "[28]": {"details": "Postemergence, 16 g ai/ha, greenhouse 10 days, 0 no effect, 100 complete control"}, "[29]": {"details": "62 g ai/ha, 0 = no effect, 100 = complete control"}},
  "data": [
    {"compound": "CCOC(=O)C1=CCC(NC(=O)C2(C)CN(c3cc(F)cc(F)c3)C(=O)O2)C1", "note": "(centres unmarked) [Compound 112]", "values": [
      {"measurement": "Plant response rating, Barnyardgrass (0 to 100 scale, 0 is no effect and 100 is complete control)", "setting": "[1]", "value": 80},
      {"measurement": "Plant response rating, Ducksalad (0 to 100 scale, 0 is no effect and 100 is complete control)", "setting": "[2]", "value": 95},
      {"measurement": "Plant response rating, Sedge, Umbrella (0 to 100 scale, 0 is no effect and 100 is complete control)", "setting": "[3]", "value": 95},
      {"measurement": "Plant response rating, Rice (0 to 100 scale, 0 is no effect and 100 is complete control)", "setting": "rice (Oryza sativa)", "value": 85},
      {"measurement": "Ryegrass, Italian plant response rating (0-100)", "setting": "[4]; [27]", "value": 90},
      {"measurement": "Ryegrass, Italian plant response rating (0 to 100 scale)", "setting": "[4]; [28]", "value": 60},
      {"measurement": "Pigweed, Palmer plant response rating (0-100)", "setting": "[5]; [27]", "value": 80},
      {"measurement": "Pigweed, Palmer plant response rating (0 to 100 scale)", "setting": "[5]; [28]", "value": 30},
      {"measurement": "Corn plant response rating (0-100)", "setting": "corn (Zea mays) [6]; [27]", "value": 100},
      {"measurement": "Corn plant response rating (0 to 100 scale)", "setting": "corn (Zea mays) [6]; [28]", "value": 100},
      {"measurement": "Kochia plant response rating (0-100)", "setting": "kochia (Bassia scoparia) [7]; [27]", "value": 90},
      {"measurement": "Kochia plant response rating (0 to 100 scale)", "setting": "kochia (Bassia scoparia) [7]; [28]", "value": 60},
      {"measurement": "Oat, Wild plant response rating (0-100)", "setting": "[8]; [27]", "value": 90},
      {"measurement": "Oat, Wild plant response rating (0 to 100 scale)", "setting": "[8]; [28]", "value": 50},
      {"measurement": "Horseweed plant response rating (0-100)", "setting": "[9]; [27]", "value": 0},
      {"measurement": "Horseweed plant response rating (0 to 100 scale)", "setting": "[9]; [28]", "value": 0},
      {"measurement": "Foxtail, Green plant response rating (0-100)", "setting": "[10]; [27]", "value": 90},
      {"measurement": "Foxtail, Green plant response rating (0 to 100 scale)", "setting": "[10]; [28]", "value": 90},
      {"measurement": "Soybean plant response rating (0-100)", "setting": "soybean (Glycine max) [11]; [27]", "value": 80},
      {"measurement": "Soybean plant response rating (0 to 100 scale)", "setting": "soybean (Glycine max) [11]; [28]", "value": 60},
      {"measurement": "Ragweed plant response rating (0-100)", "setting": "[12]; [27]", "value": 50},
      {"measurement": "Ragweed plant response rating (0 to 100 scale)", "setting": "[12]; [28]", "value": 50},
      {"measurement": "Barnyardgrass plant response rating (0-100)", "setting": "[13]; [27]", "value": 100},
      {"measurement": "Barnyardgrass plant response rating (0 to 100 scale)", "setting": "[13]; [28]", "value": 100},
      {"measurement": "Blackgrass plant response rating (0-100)", "setting": "[14]; [27]", "value": 80},
      {"measurement": "Blackgrass plant response rating (0 to 100 scale)", "setting": "[14]; [28]", "value": 70},
      {"measurement": "Wheat plant response rating (0-100)", "setting": "[15]; [27]", "value": 90},
      {"measurement": "Wheat plant response rating (0 to 100 scale)", "setting": "[15]; [28]", "value": 90},
      {"measurement": "Ryegrass, Italian plant response rating", "setting": "[16]; 16 g ai/ha, 0 to 100 scale", "value": 60},
      {"measurement": "Ryegrass, Italian plant response rating (0-100)", "setting": "[16]; [29]", "value": 80},
      {"measurement": "Pigweed, Palmer plant response rating", "setting": "[17]; 16 g ai/ha, 0 to 100 scale", "value": 0},
      {"measurement": "Pigweed, Palmer plant response rating (0-100)", "setting": "[17]; [29]", "value": 100},
      {"measurement": "Corn plant response rating", "setting": "corn (Zea mays) [18]; 16 g ai/ha, 0 to 100 scale", "value": 20},
      {"measurement": "Corn plant response rating (0-100)", "setting": "corn (Zea mays) [18]; [29]", "value": 60},
      {"measurement": "Kochia plant response rating", "setting": "kochia (Bassia scoparia) [19]; 16 g ai/ha, 0 to 100 scale", "value": 0},
      {"measurement": "Kochia plant response rating (0-100)", "setting": "kochia (Bassia scoparia) [19]; [29]", "value": 70},
      {"measurement": "Oat, Wild plant response rating", "setting": "[20]; 16 g ai/ha, 0 to 100 scale", "value": 0},
      {"measurement": "Oat, Wild plant response rating (0-100)", "setting": "[20]; [29]", "value": 0},
      {"measurement": "Foxtail, Green plant response rating", "setting": "[21]; 16 g ai/ha, 0 to 100 scale", "value": 20},
      {"measurement": "Foxtail, Green plant response rating (0-100)", "setting": "[21]; [29]", "value": 100},
      {"measurement": "Soybean plant response rating", "setting": "soybean (Glycine max) [22]; 16 g ai/ha, 0 to 100 scale", "value": 10},
      {"measurement": "Soybean plant response rating (0-100)", "setting": "soybean (Glycine max) [22]; [29]", "value": 0},
      {"measurement": "Ragweed plant response rating", "setting": "[23]; 16 g ai/ha, 0 to 100 scale", "value": 0},
      {"measurement": "Ragweed plant response rating (0-100)", "setting": "[23]; [29]", "value": 0},
      {"measurement": "Barnyardgrass plant response rating", "setting": "[24]; 16 g ai/ha, 0 to 100 scale", "value": 20},
      {"measurement": "Barnyardgrass plant response rating (0-100)", "setting": "[24]; [29]", "value": 100},
      {"measurement": "Blackgrass plant response rating", "setting": "[25]; 16 g ai/ha, 0 to 100 scale", "value": 0},
      {"measurement": "Blackgrass plant response rating (0-100)", "setting": "[25]; [29]", "value": 30},
      {"measurement": "Wheat plant response rating", "setting": "[26]; 16 g ai/ha, 0 to 100 scale", "value": 40},
      {"measurement": "Wheat plant response rating (0-100)", "setting": "[26]; [29]", "value": 70}
    ]}
  ]
}
